Reference: patent US20060079453A1, “Hla binding peptides and their uses” (priority 2002, published 2006)
No end group written: not given here.

Columns and labels:
Assay in all cases: biochemical
Format in all cases: binding
HLA-A*1101 = HLA-A*1101 (Homo sapiens, UniProt P04439, A114D/D185E/E176A/F33Y/L180Q/S129P/T187R)
HLA-A*6801 = HLA-A*6801 (Homo sapiens, UniProt P04439, A269V/D185E/E176V/E277Q/E87N/F33Y/G231S/I121M/I166T/I218V/L180W/L300P/L318F/N151K/P208A/P217A/Q86R/R169H/T345S)
HLA-A*3301 = HLA-A*3301 (Homo sapiens, UniProt P04439, A270S/D185E/E176V/E277Q/E87N/F33T/G231S/H175R/I121M/I218V/I322F/K168Q/K210R/L300P/L318F/M331R/P217A/Q86R/Q94H/R138Q/T323A/T345S/T97I/V358M/Y195H)
HLA-A*3101 = HLA-A*3101 (Homo sapiens, UniProt P04439, A270S/D185E/E176V/E277Q/F33T/G231S/G80R/H175R/I121M/I218V/I322F/K168Q/L300P/L318F/M331R/P217A/Q94H/R138Q/T323A/T345S/T97I/V358M)
HLA-A*0301 = HLA-A*0301 (Homo sapiens, UniProt P04439)

| Sequence | IC50 (HLA-A*1101) [nM] | IC50 (HLA-A*6801) [nM] | IC50 (HLA-A*3301) [nM] | IC50 (HLA-A*3101) [nM] | IC50 (HLA-A*0301) [nM] |
| --- | --- | --- | --- | --- | --- |
| MQSSFFMNR | 1.1 | 3.8 | 75 | 29 |  |
| QMAGPGPGFK | 6.2 | 30 | 4780 |  | 9.4 |
| RFCLLFYSK | 484 | 232 | 450 | 83 |  |
| AVDLSFFLK |  | 4040 | > 27800 | 6210 | 226 |
| FAFTDLTIVY | 21200 | 346 | 131000 | 42100 |  |
| QLARQAKQH |  | 243 | 1660 | 945 | 8420 |
| KILIKIPVTK | 60 | 19600 | 25000 | 1660 |  |
| VTVKIGGQLR |  | 52 | 3830 |  | 19200 |
| GLYNLLIRCLR | 1570 | 1620 | 401 | 250 |  |
| NLVYGETLEK |  | 87 | 121 | 761 | 846 |
| ILDLWVYK | 320 | 12100 | 30100 | 13700 |  |
| ATTDLTIVYR | 10 | 14 | 1740 | 34 |  |
| ILYRDCIAY | 1830 | > 19600 | 44700 |  |  |
| KTLGISYGRKK |  | 647 | 23400 | 91 | 52 |
| LVYSKVRKYR | 619 | 31 | 49 |  | 320 |
| RFYSKVSEFK |  | 547 | 4450 | 30 | 27 |
| KMGPGPGK |  | 4160 | 106000 | 1140 | 84 |
| DSIPHAACHR | 853 | 27 | 2.2 |  | 2770 |
| TTRYKYLNK | 848 | 2560 | 652 |  | 117 |

| Sequence | IC50 (HLA-A*1101) [nM] | IC50 (HLA-A*6801) [nM] | IC50 (HLA-A*3301) [nM] | IC50 (HLA-A*3101) [nM] | IC50 (HLA-A*0301) [nM] |
| --- | --- | --- | --- | --- | --- |
| KFSEYRHYNY |  | 1800 | 18400 |  | 5820 |
| ATRDLCIVYR |  | 28 | 44 | 4.7 | 237 |
| RFHNIAGHYK |  | 23 | 80 | 2.6 | 25 |
| RMYVGGVEH | 274 | > 28800 | > 123000 |  | 3.8 |
| KSKFGYGAK | 596 | > 7630 | > 123000 |  | 36 |
| KFIDFYSRIR | 9010 | 2550 | 677 | 3.3 |  |
| KISEYRHYNY |  | 25100 | 35300 |  | 42 |
| IALLIIPPK | 108 | 1960 | 1400 |  |  |
| RFYITTRYK |  | 17500 | 98 | 15 | 1.9 |
| SVYGTTLER | 6.4 | 21 | 454 |  | 28 |
| VTIRIGGQLR |  | 16 | 1350 | 61 | 3190 |
| EVYKFLFTDLR | 602 | 11 | 4.3 |  | 31200 |
| KFSEYRHYCY | 7480 | 14600 | 49400 | 308 |  |
| TVGPGPGPEK | 17 | 23 | 98200 | 10100 |  |
| GTRQTRKNRK |  | 6000 | 60200 | 2490 |  |
| GVLDGLIYSK | 21 | 831 | > 25200 | 6010 |  |
| STLPEGPGPGR |  | 30 | 822 | 28 |  |
| SLFGPGPGK | 2.3 | 36 | 82300 |  | 3.4 |
| LVGPGPGK |  | 598 | > 126000 | 23900 | 1000 |

| Sequence | IC50 (HLA-A*1101) [nM] | IC50 (HLA-A*6801) [nM] | IC50 (HLA-A*3301) [nM] | IC50 (HLA-A*3101) [nM] | IC50 (HLA-A*0301) [nM] |
| --- | --- | --- | --- | --- | --- |
| SSPLFNNFYK | 0.7 | 6.3 | 1730 |  | 100 |
| FVVQLDIQSTK | 853 | 2.7 | 31400 |  | 3680 |
| LQMMNVNLQK | 7.2 | 320 | 1110 |  | 25 |
| RFEDPTRRPYK | 432 | 7340 | 1760 | 53 |  |
| AVSEIQNNK | 11 | 14 | 25400 |  | 25 |
| VTVGPGPGVWK | 2.7 | 21 | 75400 | 2730 |  |
| FLFTDLRIVYR |  | 1.4 | 21 | 58 | 672 |
| ELFDKDTFFK |  | 3.6 | 13 | 3680 | 144 |
| VTVKVGGQLK | 54 | 104 | 46200 |  | 206 |
| VVHAQLPAR | 127 | 201 | 12 | 3.4 |  |
| KVLCDLLIR |  | 9050 | 5900 | 66 | 363 |
| QMGPGPGNFK |  | 63 | 101000 | 2680 | 49 |
| KQHTCYLIR | 213 | 12200 | 2280 | 13 |  |
| AVLQDIVLH |  | 27000 | 25800 | 6310 |  |
| RFEVYQFAFK | 611 | 2440 | 2870 |  |  |
| LVYRDDFPK | 13 | 130 | 1970 | 3010 |  |
| PAAYAAQGYK |  | 666 | > 111000 | 20300 | 950 |
| EQRLPLLPK | 765 | 1910 | 987 |  | 1090 |
| LLFYSKVRR | 73 | 11 | 276 |  | 56 |
